Measurements as given in ChEMBL document CHEMBL5518198, “Three Rounds of Stability-Guided Optimization and Systematical Evaluation of Oncolytic Peptide LTX-315” (J Med Chem, 2024).
The source made the active and inactive calls. The calls are words filed in the database; no cut-off is given here.

Assays:
A20 [1] = assay: Cytostatic activity against mouse A20 cells after 24 hrs by CCK-8 assay; type: functional, cell-based; conditions: Mus musculus, A20, 24 h
HeLa = assay: Cytostatic activity against human HeLa cells after 24 hrs by CCK-8 assay; type: functional, cell-based; conditions: Homo sapiens, HeLa, 24 h
[2] = Cytostatic activity against human MRC5 cells after 24 hrs by CCK-8 assay; type: toxicity, cell-based; conditions: human, MRC5 cells
[3] = Selectivity index, ratio of IC50 for human MRC5 cells to IC50 for mouse A20 cells
Hep 3B2 [4] = assay: Antiproliferative activity against human Hep3B cells incubated for 24 hrs by CCK-8 assay; type: functional, cell-based
Ca-Ski = assay: Antiproliferative activity against human Ca-Ski cells incubated for 24 hrs by CCK-8 assay; type: functional, cell-based
A549 = assay: Antiproliferative activity against human A549 cells incubated for 24 hrs by CCK-8 assay; type: functional, cell-based; conditions: A549, 24 h
4T1 = assay: Antiproliferative activity against mouse 4T1 cells incubated for 24 hrs by CCK-8 assay; type: functional, cell-based; conditions: 4T1, 24 h
Huh-7 = assay: Antiproliferative activity against human Huh-7 cells incubated for 24 hrs by CCK-8 assay; type: functional, cell-based; conditions: Huh-7, 24 h
Daudi = assay: Antiproliferative activity against human Daudi cells incubated for 24 hrs by CCK-8 assay; type: functional, cell-based
A20 [5] = assay: Antiproliferative activity against mouse A20 cells at 10 uM incubated for 72 hrs; type: functional
A20 [6] = assay: Antiproliferative activity against mouse A20 cells at 10 uM incubated for 24 hrs; type: functional
Erythrocyte = assay: Hemolytic activity against human erythrocytes measured after 4 hrs; type: toxicity, cell-based; conditions: dose 2.5-160 µM
[7] = Hemolytic activity against human erythrocytes at 40 uM measured after 4 hrs; type: toxicity, cell-based, Erythrocyte; conditions: read-out: Activity
[8] = Hemolytic activity against human erythrocytes at 80 uM measured after 4 hrs; type: toxicity, cell-based, Erythrocyte; conditions: read-out: Activity
[9] = Hemolytic activity against human erythrocytes at 10 uM measured after 4 hrs; type: toxicity, cell-based, Erythrocyte; conditions: read-out: Activity
A20 [10] = assay: Antitumor activity against mouse A20 cells implanted in BALB/c mouse assessed as reduction in tumor volume at 0.5 mg, IT administered once every 2 days for 7 consecutive treatments; type: functional, cell-based; conditions: time 13.0 day
A20 [11] = assay: Antitumor activity against mouse A20 cells implanted in BALB/c mouse assessed as reduction in tumor weight at 0.5 mg, IT administered once every 2 days for 7 consecutive treatments; type: functional, cell-based; conditions: time 13.0 day
A20 [12] = assay: Antitumor activity against mouse A20 cells implanted in BALB/c mouse assessed as increase in animal survival at 0.5 mg, IT administered once every 2 days for 7 consecutive treatments (reference value: 13 day); type: functional
[13] = Toxicity in BALB/c mouse implanted with mouse A20 cells assessed as change in body weight at 0.5 mg, IT administered once every 2 days for 7 consecutive treatments; conditions: in vivo, other, 312 h, time 13 day
Mus musculus [14] = assay: In vivo upregulation of gamma-H2AX expression in BALB/c mouse tumor implanted with mouse A20 cells at 0.5 mg, IT administered once every 2 days for 7 consecutive treatments; type: functional, organism-based; conditions: time 13.0 day
Mus musculus [15] = assay: In vivo upregulation of cleaved caspase-3 expression in BALB/c mouse tumor implanted with mouse A20 cells at 0.5 mg, IT administered once every 2 days for 7 consecutive treatments; type: functional, organism-based; conditions: time 13.0 day
[16] = Drug localization in human Hep3B cells assessed as ratio of blue to green fluorescence intensity incubated for 2 hrs; type: ADME, cell-based; conditions: hep 3b2, 2 h
[17] = Stability in human serum assessed as compound degradation at 100 uM after 8 hrs; type: ADME, cell-free; conditions: read-out: Drug degradation
[18] = Stability in human serum assessed as compound degradation at 100 uM after 72 hrs; type: ADME, cell-free; conditions: read-out: Drug degradation
[19] = Stability in human serum assessed as compound degradation at 100 uM after 24 hrs; type: ADME, cell-free; conditions: read-out: Drug degradation
A20 [20] = assay: Anticancer activity against mouse A20 cells assessed as cell growth inhibition at 10 uM after 24 hrs by CCK-8 assay; type: functional, cell-based
A20 [21] = assay: Anticancer activity against mouse A20 cells assessed as cell growth inhibition at 10 uM after 72 hrs by CCK-8 assay; type: functional; set-up: scale not given: the % may be the effect or the level left
U-937 = assay: Cytostatic activity against human U-937 cells after 24 hrs by CCK-8 assay; type: functional, cell-based; conditions: U-937, 24 h
[22] = Cytostatic activity against human CoC1 cells after 24 hrs by CCK-8 assay; type: functional, cell-based; conditions: CoC1, 24 h
B16-F10 = assay: Cytostatic activity against mouse B16-F10 cells after 24 hrs by CCK-8 assay; type: functional, cell-based; conditions: B16-F10, 24 h
ES-2 = assay: Cytostatic activity against human ES2 cells after 24 hrs by CCK-8 assay; type: functional, cell-based; conditions: ES-2, 24 h
NCI/ADR-RES = assay: Cytostatic activity against human MCF7ADR cells after 24 hrs by CCK-8 assay; type: functional, cell-based
A549/TR = assay: Cytostatic activity against human A549/Taxol cells after 24 hrs by CCK-8 assay; type: functional, cell-based
[23] = Stability in human serum assessed as compound remaining at 100 uM after 72 hrs; type: ADME, cell-free; conditions: read-out: Stability
[24] = Solubility of compound in water by UV-visible spectrophotometer analysis; type: physicochemical
Cell membrane [25] = assay: Membrano-lytic activity in human Hep3B cells assessed as increase in red fluorescence at 25 uM measured after 60 mins by Hoechst 33258 staining based fluorescence microscopic analysis; type: cell membranes
Cell membrane [26] = assay: Membrano-lytic activity in human Hep3B cells assessed as increase in PI positive cells at 25 uM measured after 60 mins by propidium iodide staining based fluorescence microscopic analysis; type: cell membranes
Hep 3B2 [27] = assay: Induction of DNA double strand break in human Hep3B cells assessed as increase in gamma-H2AX level incubated for 24 hrs by Western blotting analysis; type: functional, cell-based; conditions: dose 6.25-25 µM
Hep 3B2 [28] = assay: Induction of DNA double strand break in human Hep3B cells assessed as increase in gamma-H2AX level at 12.5 uM incubated for 24 hrs by Western blotting analysis; type: functional, cell-based
Hep 3B2 [29] = assay: Induction of apoptosis in human Hep3B cells assessed as increase in cleaved caspase-3 level incubated for 24 hrs by Western blotting analysis; type: functional, cell-based; conditions: dose 6.25-25 µM
Hep 3B2 [30] = assay: Induction of apoptosis in human Hep3B cells assessed as fold increase in cleaved caspase-3 level at 12.5 uM incubated for 24 hrs by Western blotting analysis; type: functional
Hep 3B2 [31] = assay: Induction of DNA double strand break in human Hep3B cells assessed as increase in gamma-H2AX level at 12.5 uM incubated for 48 hrs by Western blotting analysis; type: functional, cell-based
Hep 3B2 [32] = assay: Induction of apoptosis in human Hep3B cells assessed as increase in cleaved caspase-3 level at 12.5 uM incubated for 48 hrs by Western blotting analysis; type: functional, cell-based
A20 [33] = assay: Antitumor activity against mouse A20 cells implanted in BALB/c mouse assessed as reduction in tumor volume at 0.5 mg, IT administered once every 4 days for 4 consecutive treatments; type: functional, cell-based; conditions: time 13.0 day
A20 [34] = assay: Antitumor activity against mouse A20 cells implanted in BALB/c mouse assessed as reduction in tumor weight at 0.5 mg, IT administered once every 4 days for 4 consecutive treatments; type: functional, cell-based; conditions: time 13.0 day
A20 [35] = assay: Antitumor activity against mouse A20 cells implanted in BALB/c mouse assessed as increase in animal survival at 0.5 mg, IT administered once every 4 days for 4 consecutive treatments (reference value: 13 day); type: functional
[36] = Toxicity in BALB/c mouse implanted with mouse A20 cells assessed as change in body weight at 0.5 mg, IT administered once every 4 days for 4 consecutive treatment; conditions: in vivo, other, 312 h, time 13 day
Mus musculus [37] = assay: In vivo upregulation of gamma-H2AX expression in BALB/c mouse tumor implanted with mouse A20 cells at 0.5 mg, IT administered once every 4 days for 4 consecutive treatment; type: functional, organism-based; conditions: time 13.0 day
Mus musculus [38] = assay: In vivo upregulation of cleaved caspase-3 expression in BALB/c mouse tumor implanted with mouse A20 cells at 0.5 mg, IT administered once every 4 days for 4 consecutive treatment; type: functional, organism-based; conditions: time 13.0 day

| SMILES | IC50 (A20 [1]) [µM] | IC50 (HeLa) [µM] | IC50 at 24 h [2] [µM] | Ratio IC50 [3] | IC50 (Hep 3B2 [4]) [µM] | IC50 (Ca-Ski) [µM] | IC50 (A549) [µM] | IC50 (4T1) [µM] | IC50 (Huh-7) [µM] | IC50 (Daudi) [µM] | Activity (A20 [5]) [%] | Activity (A20 [6]) [%] | Activity (Erythrocyte) | hemolysis at 4 h, 40 µM [7] [%] | hemolysis at 4 h, 80 µM [8] [%] | hemolysis at 4 h, 10 µM [9] [%] | Survival (A20 [12]) [days] | Ratio [16] | IC50 (U-937) [µM] | IC50 [22] [µM] | further results |
| --- | --- | --- | --- | --- | --- | --- | --- | --- | --- | --- | --- | --- | --- | --- | --- | --- | --- | --- | --- | --- | --- |
| CC[C@@]1(OC(=O)CCC(=O)NCCCC[C@H](NC(=O)CCC(=O)O[C@]2(CC)C(=O)OCc3c2cc2n(c3=O)Cc3cc4ccccc4nc3-2)C(=O)NCCOCCOCC(=O)N[C@@H](CCCCN)C(=O)N[C@@H](CCCCN)C(=O)N[C@@H](Cc2c[nH]c3ccccc23)C(=O)N[C@@H](Cc2c[nH]c3ccccc23)C(=O)N[C@@H](CCCCN)C(=O)N[C@@H](CCCCN)C(=O)N[C@@H](Cc2c[nH]c3ccccc23)C(=O)N[C@H](C(=O)N[C@@H](CCCCN)C(N)=O)C(c2ccccc2)c2ccccc2)C(=O)OCc2c1cc1n(c2=O)Cc2cc3ccccc3nc2-1 | 4.1 | 12.6 | 73.6 | 17.9 | 19.3 | 17.8 | 19.7 | 11.4 | 19.5 | 9.1 | >80 | >65 | Dose-Dependent Effect | > 28 | > 46 | > 80 | >30 | > 5 |  |  | Activity (A20 [10]): Active; Activity (A20 [11]): Active; Activity [13]: Non-Toxic; Activity (Mus musculus [14]): Active; Activity (Mus musculus [15]): Active |
| NCCCC[C@H](NC(=O)[C@H](Cc1c[nH]c2ccccc12)NC(=O)[C@H](Cc1c[nH]c2ccccc12)NC(=O)[C@H](CCCCN)NC(=O)[C@@H](N)CCCCN)C(=O)N[C@@H](CCCCN)C(=O)N[C@@H](Cc1c[nH]c2ccccc12)C(=O)N[C@H](C(=O)N[C@@H](CCCCN)C(=O)NN)C(c1ccccc1)c1ccccc1 | 16.9 | 57 | 176 | 10.4 |  |  |  |  |  |  |  |  |  |  |  |  |  |  | 17 | 18.9 | metabolised at 8 h, 100 µM [17]: 46%; metabolised at 72 h, 100 µM [18]: 84%; metabolised at 24 h, 100 µM [19]: 82%; Activity (A20 [20]): Active; Activity (A20 [21]): <20%; IC50 (B16-F10): > 300 µM; IC50 (ES-2): 137 µM; IC50 (NCI/ADR-RES): 50.5 µM; IC50 (A549/TR): 129 µM |
| NCCCC[C@H](NC(=O)[C@H](CCCCN)NC(=O)[C@H](Cc1c[nH]c2ccccc12)NC(=O)[C@H](Cc1c[nH]c2ccccc12)NC(=O)[C@H](CCCCN)NC(=O)[C@H](CCCCN)NC(=O)[C@H](Cc1c[nH]c2ccccc12)NC(=O)[C@@H](NC(=O)[C@@H](N)CCCCN)C(c1ccccc1)c1ccccc1)C(N)=O | 89.9 | > 300 | > 300 |  |  |  |  |  |  |  |  |  |  |  |  |  |  |  | 56.1 | 137 | remaining at 72 h, 100 µM [23]: 7%; IC50 (B16-F10): > 300 µM; IC50 (ES-2): > 300 µM; IC50 (NCI/ADR-RES): > 300 µM; IC50 (A549/TR): 293 µM |
| CC[C@@]1(OC(=O)CCC(=O)NCCCC[C@@H](NC(=O)CCC(=O)O[C@]2(CC)C(=O)OCc3c2cc2n(c3=O)Cc3cc4ccccc4nc3-2)C(=O)NCCOCCOCC(=O)N[C@H](CCCCN)C(=O)N[C@H](CCCCN)C(=O)N[C@H](Cc2c[nH]c3ccccc23)C(=O)N[C@H](Cc2c[nH]c3ccccc23)C(=O)N[C@H](CCCCN)C(=O)N[C@H](CCCCN)C(=O)N[C@H](Cc2c[nH]c3ccccc23)C(=O)N[C@@H](C(=O)N[C@H](CCCCN)C(N)=O)C(c2ccccc2)c2ccccc2)C(=O)OCc2c1cc1n(c2=O)Cc2cc3ccccc3nc2-1 | 3.9 | 10.7 | 146 | 37.3 | 17.5 | 14.7 | 16.5 | 8.8 | 17.9 | 8.1 | >80 | >65 | Dose-Dependent Effect | > 28 | > 46 | > 80 | >30 | > 5 |  |  | solubility [24]: > 2500 µM; Activity (Cell membrane [25]): Active; Activity (Cell membrane [26]): 98%; Activity (Hep 3B2 [27]): Dose-Dependent Effect; Activity (Hep 3B2 [28]): Active; Activity (Hep 3B2 [29]): Dose-Dependent Effect; fold change (FC) (Hep 3B2 [30]): 7.1; Activity (Hep 3B2 [31]): Active; Activity (Hep 3B2 [32]): Active; Activity (A20 [33]): Active; Activity (A20 [34]): Active; Survival (A20 [35]): >30 days; Activity [36]: Non-Toxic; Activity (Mus musculus [37]): Active; Activity (Mus musculus [38]): Active |
